This series in a line: Qualitative solubility/crystallisation tests on 15 mg scale. The class given is physicochemical.

This note sets out measurements from patent US9962367B2, “Oral formulations of pyrrolidine derivatives” (ObsEva S.A., priority 2013, dated 2018).

Take `CO/N=C1/C[C@@H](CO)N(C(=O)c2ccc(-c3ccccc3C)cc2)C1` [(3Z,5S), (3Z,5S)-5-(hydroxymethyl)-1-[(2′-methyl-1,1′-biphenyl-4-yl)carbonyl]pyrrolidin-3-one-O-methyloxime]: the “Dissolves in” value amounted to 40 vol hot (solvent DIPE, hot); 4 vol hot (solvent IPA, hot); 4 vol hot (solvent MIBK, hot); 4 vol cold (solvent THF, cold); 6 vol hot (solvent tBuOH, hot); 2 vol cold (solvent toluene, cold).
